For one data set, the system named is Neisseria gonorrhoeae. Briefly: MIC50 by CLSI agar dilution on a panel of N. gonorrhoeae clinical isolates. Conditions: Neisseria gonorrhoeae. Type of data set: cell-based. How it is done: MIC50: MICs were determined in accordance with the appropriate Clinical and Laboratory Standards Institute (CLSI) methodology by the agar dilution susceptbility testing method in GC agar base.
(In agar dilution the substance is mixed into plates at graded concentrations.)

Data set [1] concerns the target Neisseria gonorrhoeae FabI (Neisseria gonorrhoeae, UniProt A0ACH0F547). Briefly: Neisseria gonorrhoeae FabI inhibition assay (NADH consumption).
Data set [2] can be described thus: Mouse cassette PK and oral bioavailability determination. Type of data set: in vivo, Female BALB/c mice. Conditions: female, BALB/c, mouse, plasma; iv 1 mg/kg, po 2 mg/kg, cassette dosing; read-out: Mouse F (%). How it is done:
Dose volumes were 5 ml/kg and 10 ml/kg for IV and oral administration, respectively. Compounds were co-formulated in a 10% DMSO (v/v) and 40% Captisol (w/v) in saline solution formulation (up to 3 compounds in a cassette). […] Tmax, Cmax, AUC, clearance, volume of distribution and oral bioavailability were estimated from the plasma concentrations using non-compartmental pharmacokinetic models. In particular, oral bioavailability (F %) was defined as F=(Doseiv*AUCpo)/(Dosepo*AUCiv)*100

The nature of data set [3]: Prediction of hepatic extraction ratio from liver microsome stability. It counts as in vitro ADME. Conditions: human liver microsomes, Well-Stirred model.
[4] abbreviates: agar dilution, GC agar base, minimum of 15 clinical isolates, read-out: MIC50.

Read-outs that look alike come from different tables or passages of the source.

Chain of Neisseria gonorrhoeae FabI (A0ACH0F547 1-261): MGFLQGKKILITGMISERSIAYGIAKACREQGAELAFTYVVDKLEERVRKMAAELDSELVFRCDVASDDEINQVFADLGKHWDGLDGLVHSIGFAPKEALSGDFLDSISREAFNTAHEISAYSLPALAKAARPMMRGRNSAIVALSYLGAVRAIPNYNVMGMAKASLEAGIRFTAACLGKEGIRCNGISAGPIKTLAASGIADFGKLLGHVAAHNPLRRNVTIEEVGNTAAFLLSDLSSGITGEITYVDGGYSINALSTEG

For the molecule `Cc1oc2c(Oc3ccc(C#N)cc3)cccc2c1CN(C)C(=O)/C=C/c1cnc2c(c1)NCCC(=O)N2` [Compound 80, (E)-N-((7-(4-cyanophenoxy)-2-methylbenzofuran-3-yl)methyl)-N-methyl-3-(4-oxo-2,3,4,5-tetrahydro-1H-pyrido[2,3-b][1,4]diazepin-8-yl)acrylamide], in the data set on Neisseria gonorrhoeae, the MIC50 (commonly the lowest concentration that inhibits either 50% of growth or 50% of the strains tested, depending on the study) is under 1 µg/mL. Besides, the concentration for half-maximal inhibition (IC50) – broadly, the concentration that inhibits the measured activity by half – in data set [1] was under 10 nM. Besides, the bioavailability in data set [2] came to 35%. Besides, in data set [3], the “Predict Human hep ER” value was 0.25.
Turning to `Cc1oc2c(Oc3ccc4c(c3)OCO4)cccc2c1CN(C)C(=O)/C=C/c1cnc2c(c1)NCCC(=O)N2` [Compound 119, (E)-N-((7-(Benzo[d][1,3]dioxol-5-yloxy)-2-methylbenzofuran-3-yl)methyl)-N-methyl-3-(4-oxo-2,3,4,5-tetrahydro-1H-pyrido[2,3-b][1,4]diazepin-8-yl)acrylamide], the MIC50 with Neisseria gonorrhoeae (setting [4]) was under 1 µg/mL. In data set [1], this molecule registered a half-inhibitory concentration (IC50) of under 10 nM. Moreover, the “Predict Human hep ER” value in data set [3] was 0.08.
On to `Cc1oc2c(Oc3ccc(C#N)cc3)cccc2c1CN(C)C(=O)/C=C/c1cnc2c(c1)NC[C@@](C)(O)C(=O)N2` [Compound 152, (R,E)-N-((7-(4-cyanophenoxy)-2-methylbenzofuran-3-yl)methyl)-3-(3-hydroxy-3-methyl-4-oxo-2,3,4,5-tetrahydro-1H-pyrido[2,3-b][1,4]diazepin-8-yl)-N-methylacrylamide], for which, in the data set on Neisseria gonorrhoeae, the MIC50 is under 1 µg/mL. In addition, in data set [1], the half-inhibitory concentration (IC50) was under 10 nM.
In the case of `C[C@@]1(O)CNc2cc(/C=C/C(=O)N3C[C@H]4CC(c5ccc(Oc6ccccc6)cc5)=C[C@H]4C3)cnc2NC1=O` [Compound 159, (R)-3-hydroxy-3-methyl-8-((E)-3-oxo-3-((3aS,6aR)-5-(4-phenoxyphenyl)-3,3a,4,6a-tetrahydrocyclopenta[c]pyrrol-2(1H)-yl)prop-1-en-1-yl)-1,2,3,5-tetrahydro-4H-pyrido[2,3-b][1,4]diazepin-4-one], in the data set with Neisseria gonorrhoeae (setting [4]), the MIC50 was under 1 µg/mL. Further, the IC50 in data set [1] is under 10 nM.
Take `Cc1oc2c(Oc3ccc4c(c3)OCC4)cccc2c1CN(C)C(=O)/C=C/c1cnc2c(c1)NC(C)(C)C(=O)N2` [Compound 164, (E)-N-((7-((2,3-dihydrobenzofuran-6-yl)oxy)-2-methylbenzofuran-3-yl)methyl)-3-(2,2-dimethyl-3-oxo-1,2,3,4-tetrahydropyrido[2,3-b]pyrazin-7-yl)-N-methylacrylamide]: in the data set on Neisseria gonorrhoeae (setting [4]), the MIC50 was under 1 µg/mL. In data set [1], this molecule had an IC50 of under 10 nM.
On to `Cc1oc2c(N)cccc2c1CN(C)C(=O)/C=C/c1cnc2c(c1)NC[C@@](C)(O)C(=O)N2` [Compound 167, (R,E)-N-((7-amino-2-methylbenzofuran-3-yl)methyl)-3-(3-hydroxy-3-methyl-4-oxo-2,3,4,5-tetrahydro-1H-pyrido[2,3-b][1,4]diazepin-8-yl)-N-methylacrylamide], for which the MIC50 with Neisseria gonorrhoeae (setting [4]) was under 1 µg/mL. Also, the half-maximal inhibitory concentration (IC50) in data set [1] was under 10 nM.
For `Cc1oc2c(N)cccc2c1CN(C)C(=O)/C=C/c1cnc2c(c1)CCCC(=O)N2` [Compound 168, (E)-N-((7-amino-2-methylbenzofuran-3-yl)methyl)-N-methyl-3-(8-oxo-6,7,8,9-tetrahydro-5H-pyrido[2,3-b]azepin-3-yl)acrylamide], the MIC50 with Neisseria gonorrhoeae (setting [4]) was under 1 µg/mL. The same molecule had an IC50 in data set [1] of under 10 nM.
For `Cc1oc2ccccc2c1CN(C)C(=O)/C=C/c1cnc2c(c1)NCCC(=O)N2` [Compound 170, (E)-N-Methyl-N-((2-methylbenzofuran-3-yl)methyl)-3-(4-oxo-2,3,4,5-tetrahydro-1H-pyrido[2,3-b][1,4]diazepin-8-yl)acrylamide] the same measures were under 1 µg/mL and under 10 nM.
Regarding `Cc1oc2c(Oc3ccc4c(c3)CCN4)cccc2c1CN(C)C(=O)/C=C/c1cnc2c(c1)CCCC(=O)N2` [Compound 180, (E)-N-((7-(indolin-5-yloxy)-2-methylbenzofuran-3-yl)methyl)-N-methyl-3-(8-oxo-6,7,8,9-tetrahydro-5H-pyrido[2,3-b]azepin-3-yl)acrylamide], the MIC50 in the data set with Neisseria gonorrhoeae (setting [4]) was under 1 µg/mL. The molecule further had an IC50 in data set [1] of under 10 nM.
For `Cc1oc2c(Oc3ccc4c(c3)OCC4)cccc2c1CN(C)C(=O)/C=C/c1cnc2c(c1)NC[C@@](C)(O)C(=O)N2` [Compound 182, (R,E)-N-((7-((2,3-dihydrobenzofuran-6-yl)oxy)-2-methylbenzofuran-3-yl)methyl)-3-(3-hydroxy-3-methyl-4-oxo-2,3,4,5-tetrahydro-1H-pyrido[2,3-b][1,4]diazepin-8-yl)-N-methylacrylamide], in that order: under 1 µg/mL and under 10 nM.
As for `COc1cccc(Oc2cccc3c(CN(C)C(=O)/C=C/c4cnc5c(c4)NC[C@@](C)(O)C(=O)N5)c(C)oc23)c1` [Compound 183, (R,E)-3-(3-hydroxy-3-methyl-4-oxo-2,3,4,5-tetrahydro-1H-pyrido[2,3-b][1,4]diazepin-8-yl)-N-((7-(3-methoxyphenoxy)-2-methylbenzofuran-3-yl)methyl)-N-methylacrylamide], the MIC50 in the data set with Neisseria gonorrhoeae (setting [4]) was under 1 µg/mL. The same molecule gave an IC50 in data set [1] of under 10 nM. Besides, in data set [2], the bioavailability was determined as 16%.
Consider `COc1cccc(Oc2cccc3c(CN(C)C(=O)/C=C/c4cnc5c(c4)CCCC(=O)N5)c(C)oc23)c1` [Compound 186, (E)-N-((7-(3-methoxyphenoxy)-2-methylbenzofuran-3-yl)methyl)-N-methyl-3-(8-oxo-6,7,8,9-tetrahydro-5H-pyrido[2,3-b]azepin-3-yl)acrylamide], for which the MIC50 in the data set with Neisseria gonorrhoeae (setting [4]) was under 1 µg/mL. The molecule also had a half-maximal inhibitory concentration (IC50) in data set [1] of under 10 nM.
As to `COc1cccc(Oc2cccc3c(CN(C)C(=O)/C=C/c4cnc5c(c4)CCCC(=O)N5)c(C)sc23)c1` [Compound 194, (E)-N-((7-(3-methoxyphenoxy)-2-methylbenzo[b]thiophen-3-yl)methyl)-N-methyl-3-(8-oxo-6,7,8,9-tetrahydro-5H-pyrido[2,3-b]azepin-3-yl)acrylamide], the MIC50 in the data set on Neisseria gonorrhoeae (setting [4]) was under 1 µg/mL. For the same molecule, the IC50 in data set [1] is under 10 nM. Further, in data set [2], the bioavailability was 12%.
On to `Cc1c(CN(C)C(=O)/C=C/c2cnc3c(c2)N[C@H](C)CC(=O)N3)oc2ccccc12` [Compound 214, (E)-N-methyl-N-[(3-methylbenzofuran-2-yl)methyl]-3-[(2R)-2-methyl-4-oxo-1,2,3,5-tetrahydropyrido[2,3-b][1,4]diazepin-8-yl]prop-2-enamide], for which the MIC50 with Neisseria gonorrhoeae (setting [4]) is under 1 µg/mL. Moreover, in data set [1], the IC50 was under 10 nM.
Turning to `Cc1c(CN(C)C(=O)/C=C/c2cnc3c(c2)NC[C@@H](O)C(=O)N3)oc2ccccc12` [Compound 229, (R,E)-3-(3-Hydroxy-4-oxo-2,3,4,5-tetrahydro-1H-pyrido[2,3-b][1,4]diazepin-8-yl)-N-methyl-N-((3-methylbenzofuran-2-yl)methyl)acrylamide], the MIC50 in the data set on Neisseria gonorrhoeae (setting [4]) is under 1 µg/mL. For the same molecule, in data set [1], the IC50 was under 10 nM.
With `Cc1c(CN(C)C(=O)/C=C/c2cnc3c(c2)NC[C@H](O)C(=O)N3)oc2ccccc12` [Compound 230, (S,E)-3-(3-Hydroxy-4-oxo-2,3,4,5-tetrahydro-1H-pyrido[2,3-b][1,4]diazepin-8-yl)-N-methyl-N-((3-methylbenzofuran-2-yl)methyl)acrylamide], the MIC50 in the data set with Neisseria gonorrhoeae (setting [4]) is under 1 µg/mL. The 50% inhibitory concentration (IC50) in data set [1] is under 10 nM.
With `CCC1(O)Cc2cc(/C=C/C(=O)N(C)Cc3oc4ccccc4c3C)cnc2NC1=O` (centres unmarked) [Compound 252, (E)-3-(6-ethyl-6-hydroxy-7-oxo-5,6,7,8-tetrahydro-1,8-naphthyridin-3-yl)-N-methyl-N-((3-methylbenzofuran-2-yl)methyl)acrylamide], in the data set with Neisseria gonorrhoeae (setting [4]), the MIC50 is under 1 µg/mL. This molecule also returned an IC50 in data set [1] of under 10 nM.
For `Cc1c(CN(C)C(=O)/C=C/c2cnc3c(c2)NCC(CO)C(=O)N3)oc2ccccc12` (centres unmarked) [Compound 270, (E)-3-(3-(hydroxymethyl)-4-oxo-2,3,4,5-tetrahydro-1H-pyrido[2,3-b][1,4]diazepin-8-yl)-N-methyl-N-((3-methylbenzofuran-2-yl)methyl)acrylamide] the same measures were under 1 µg/mL and under 10 nM.
As for `Cc1oc2c(N)cccc2c1CN(C)C(=O)/C=C/c1cnc2c(c1)NC[C@H](O)C(=O)N2` [Compound 276, (S,E)-N-((7-amino-2-methylbenzofuran-3-yl)methyl)-3-(3-hydroxy-4-oxo-2,3,4,5-tetrahydro-1H-pyrido[2,3-b][1,4]diazepin-8-yl)-N-methylacrylamide], the MIC50 with Neisseria gonorrhoeae (setting [4]) is under 1 µg/mL. In data set [1], this molecule showed an IC50 of under 10 nM. Besides, in data set [2], the bioavailability was 43%.
With `Cc1oc2c(N)cccc2c1CN(C)C(=O)/C=C/c1cnc2c(c1)NC(C)(C)C(=O)N2` [Compound 287, (E)-N-((7-amino-2-methylbenzofuran-3-yl)methyl)-3-(2,2-dimethyl-3-oxo-1,2,3,4-tetrahydropyrido[2,3-b]pyrazin-7-yl)-N-methylacrylamide], the MIC50 in the data set with Neisseria gonorrhoeae (setting [4]) is under 1 µg/mL. In addition, the IC50 in data set [1] is under 10 nM. Besides, the “Predict Human hep ER” value in data set [3] was 0.34.
For `Cc1oc2c(N)cccc2c1CN(C)C(=O)/C=C/c1cnc2c(c1)N[C@H](C)[C@H](O)C(=O)N2` [Compound 290, (E)-N-((7-amino-2-methylbenzofuran-3-yl)methyl)-3-((2R,3S)-3-hydroxy-2-methyl-4-oxo-2,3,4,5-tetrahydro-1H-pyrido[2,3-b][1,4]diazepin-8-yl)-N-methylacrylamide], in that order: under 1 µg/mL, under 10 nM and 0.1.

(Values after patent US12545672B2, “Antibiotic compounds, methods of manufacturing the same, pharmaceutical compositions containing the same and uses thereof” (Debiopharm International S.A., priority 2018, dated 2026).)
